Consider two molecules from patent US12624057B2, “Bisphosphonate quinolone conjugates and uses thereof” (BIOVINC, LLC, priority 2016, dated 2026).

Molecules are shown by their SMILES. In brackets after ≈: the same amount, converted by molar mass. Entries after “also recorded” stand apart in the source; their conditions may differ.

For experiment [1], the system named is planktonic S. aureus strain ATCC-6538. The experiment in a line: Antimicrobial susceptibility testing in acidic versus basic/physiological pH. It is filed as cell-based, Staphylococcus aureus. The note with it: acidic (pH 5) versus basic/physiological (pH 7.4). The procedure: Antimicrobial susceptibility testing of BP-ciprofloxacin against planktonic cultures of S. aureus strain ATCC-6538 in acidic versus basic pH: This experimental setting was performed in the same manner as described previously for disc diffusion testing, but microbiological media was adjusted to pH 7.4 and pH 5 using KOH or HCL solution and measured using a universal pH-indicator (Merck, Poland).
Antimicrobial susceptibility testing of 6 against planktonic cultures of S. aureus strain ATCC-6538 in acidic versus physiological pH: This experimental setting was performed in the same manner as described previously for disc diffusion testing, but microbiological media was adjusted to pH 7.4 and pH 5 using KOH or HCL solution and measured using a universal pH-indicator (Merck, Poland).

Experiment [2] deals with planktonic S. aureus clinical osteomyelitis strains (MSSA and MRSA). As to the kind of experiment: MIC by microdilution against planktonic clinical S. aureus strains. In kind it is cell-based, Staphylococcus aureus. As to conditions: for antimicrobial activity / MIC against planktonic S. aureus (in words): microdilution, 24 h. The procedure: (§1) Subsequently, the plate was incubated for 24 h/37° C. in a shaker to obtain optimal conditions for microbial growth and to prevent bacteria from forming biofilms. After incubation, the absorbance was measured once again. The following control samples were established: negative control sample one: sterile medium without microbes; negative control sample two: sterile medium without microbes implemented with DMSO (dimethyl sulfoxide, Sigma-Aldritch) to final concentration of 1% (v/v); positive control sample one: medium+microbes with no compound tested; positive control sample two: medium+microbes with no compound tested but implemented with DMSO to final concentration of 1% (v/v). […] To assess relative number of cells, the following calculations were performed. […] Next, the relative number of cells subjected to incubation with tested compounds were counted as follows: […].
as §1, with “Evaluation of the MIC of tested compounds against planktonic forms of clinical staphylococcal strains analyzed: To assess the impact of parent antibiotic and conjugates on microbial growth, 100 μl of microbial solutions of density 1×10^5 CFU/ml were placed into wells of 96-well test plates together with appropriate concentrations of tested compounds. […] Subsequently,” for “Subsequently,”, “plates were” for “the plate was”, “hrs/37°” for “h/37°”, “Sigma-Aldrich)” for “Sigma-Aldritch)”
The occurrence of opacification or lack of opacification of media was proof of pathogen growth or lack of growth, respectively. Additionally, bacterial solutions were cultured on the appropriate stable medium. Growth or lack of growth of bacterial colonies together with above-mentioned results from liquid cultures served as confirmation of results obtained spectrophotometrically.

In experiment [3] the test system is biofilms of Aggregatibacter actinomycetemcomitans grown on HA. The experiment in a line: Aa biofilms grown on HA. It is filed as cell-based.
Experiment [4] concerns S. aureus strain ATCC-6538 (MSSA) and clinical MRSA strain MR4-CIPS. As to the kind of experiment: Time-kill assay (CLSI). In kind it is cell-based, Staphylococcus aureus. The note with it: for time-kill profile (in words): 1× and ½× MIC, 24 hrs. The protocol:
Time-kill assay for BP-ciprofloxacin conjugate against S. aureus strain ATCC-6538 (MSSA) and clinical MRSA strain MR4-CIPS: This experiment was performed in the same manner as described previously under the subheading: “Evaluation of MIC of tested compounds against planktonic forms of clinical staphylococcal strains analyzed”, but absorbance assays (at 580 nm wavelength) were taken in hour: 0, 1, 2, 4, 8, 16, 24.

The subject of experiment [5] is Aggregatibacter actinomycetemcomitans (Aa; wild-type rough strain D7S-1; serotype a). The experiment in a line: MIC assay on Aa. It is filed as cell-based.
From the text: (§2) Since this BP-ciprofloxacin conjugate is novel and has not been tested in vivo, we performed an initial safety and efficacy study in an animal model of peri-implant osteomyelitis. This model is a unique in-house jawbone peri-implant osteomyelitis model that was developed specifically for translational value to study biofilm-mediated disease and host response in vivo (Freire, et al, Development of animal model for Aggregatibacter actinomycetemcomitans biofilm-mediated oral osteolytic infection: a preliminary study. J Periodontol 2011; 82:778-89). […] After biofilms are established on the implants in vitro, they are surgically transferred to the jawbone of each rat. Animals are anesthetized, the cheeks are retracted and a transmucosal osteotomy is performed so implants can be manually inserted into the osteotomy and secured. Two biofilm-inoculated implants are placed in each rat (n=12 rats and 24 implants) in the palatal bone bilaterally.
as §1
After biofilms were established on the implants in vitro, they were surgically transferred to the jawbone of each rat. […]

Experiment [6] has the same test system. The experiment in a line: Disc diffusion inhibition zone assay on Aa. It is filed as cell-based.
From the text: as §2
Next, inhibition zones were recorded using a ruler.
After biofilms were established on the implants in vitro, they were surgically transferred to the jawbone of each rat. For surgery, animals were anesthetized with 4% isoflurane inhalant initially followed by intraperitoneal injection of ketamine (80-90 mg/kg) plus xylazine (5-10 mg/kg). Then local anesthesia was given via infiltration injection of bupivicaine 0.25% at the surgical site. […]

For `O=C(O)c1cn(C2CC2)c2cc(N3CCN(C(=O)Oc4ccc(CC(P(=O)(O)O)P(=O)(O)O)cc4)CC3)c(F)cc2c1=O` [Compound 6, 1-cyclopropyl-7-(4-((4-(2,2-diphosphonoethyl)phenoxy)carbonyl)piperazin-1-yl)-6-fluoro-4-oxo-1,4-dihydroquinoline-3-carboxylic acid], the entries for the “effect of pH on antimicrobial activity / concentration to reach MIC50” value in experiment [1] and in experiment [1] (listed as BP-ciprofloxacin) were “half the conjugate concentration; also recorded: slightly improved profile in acidic conditions” and “half the conjugate concentration; also recorded: improved bactericidal profile in acidic”, respectively. The “MIC compared with mean bactericidal concentration (MBC)” value in experiment [2] (AST data) was “equivalent to their mean bactericidal concentrations”. Also, the “antimicrobial activity / MIC against planktonic S. aureus (in words)” value in experiment [2] is on record as “effective bactericidal activity”; in experiment [2] (listed as BCC), “retains significant bactericidal activity”; in experiment [2] (listed as BP-ciprofloxacin), “slightly greater concentrations of conjugate required to reach MIC than ciprofloxacin alone”. For the same molecule, the “activity against Aa biofilm on HA (in words)” value in experiment [3] is reported as “effective antimicrobial activity”. Further, in experiment [3] (strain D7S-5 grown on HA), the “concentration with effective antimicrobial profile” value is above 15 µg/mL. The “time-kill profile (in words)” value in experiment [4] is “sustained bactericidal activity over 24 hrs”; in experiment [4] (listed as BP-ciprofloxacin), “strong bactericidal activity at 1 hr and up to 24 hrs”. For the same molecule, the “time to bactericidal activity / evident prevention of growth” value is 2 h in experiment [4] (at half the MIC) and at most 1 h in experiment [4] (at half the MIC, listed as conjugate). The molecule also registered a growth inhibition in experiment [4] (at half the MIC, up to/after 24 hrs, versus controls) of 50%. In addition, the “time to bactericidal activity” value in experiment [4] (at the established MIC) was at most 1 h. Further, the “prevention of bacterial growth” value in experiment [4] (at the established MIC, up to 24 hrs) is listed as 100%.
As to `O=C(O)c1cn(C2CC2)c2cc(N3CCNCC3)c(F)cc2c1=O` [ciprofloxacin, reference compound], the values for the MIC90 in experiment [5] (Example 1), in experiment [5] (Example 5) and in experiment [5] (Example 6) were 2 µg/mL (≈ 6.04 µM), 2 µg/mL (≈ 6.04 µM) and 2000 µg/mL (≈ 6040 µM), respectively. Further, in experiment [6], the “disc diffusion inhibition zone diameters” value is given as above 40 mm.
